# Source: patent publication US4179441A, “Fungidal and herbicidal 2-substituted-3-oxa-3aλ^4, 4-dithia-6-halo-1,5-diazapentalene” (Chevron Research Company, priority 1977, dated 1979)
# What was measured:
# [1] = test system: Septoria apii; conditions: in vivo
# [2] = test system: Erysiphe polygoni; assay: Powdery Mildew (bean seedlings); type: in vivo; conditions: 240 h, 250 ppm spray on bean seedlings, about 10 days, relative to untreated check plants
# Description: The powdery mildew test was made using bean seedlings (var. Bountiful) with well-developed primary leaves. The pathogen was Erysiphe polygoni. The bean seedlings were sprayed with a 250 ppm solution of the test compound in an acetone-water mixture containing a nonionic emulsifier. The treated plants were inoculated one day after spray application of the test compound with the pathogen. […] The rate of infection on the leaves was made after about 10 days. The percent disease control provided by a given test compound was based on the disease reduction relative to untreated check plants.
# [3] = test system: Pythium ultimum; assay: Mycelia Inhibition; type: cell-based; conditions: mycelial inhibition, 25° C., 24 hours
# [4] = test system: Rhizoctonia solani; assay: Mycelia Inhibition; type: cell-based; conditions: mycelial inhibition, 25° C., 24 hours
# [5] = test system: Aspergillus niger; assay: Mycelia Inhibition; type: cell-based; conditions: mycelial inhibition, 25° C., 24 hours
# [6] = test system: Fusarium moniliforme; assay: Mycelia Inhibition; type: cell-based; conditions: mycelial inhibition, 25° C., 24 hours
# [7] = test system: Phytophthora infestans; assay: whole plant or invertebrate; type: in vivo; conditions: in Solanum lycopersicum, 168 h, read-out: Tomato Late Blight % Control
# [8] = test system: Alternaria solani; assay: Tomato Early Blight; type: in vivo; conditions: 288 h, 250 ppm spray, inoculated one day later, based on untreated check plants, read-out: Tomato Early blight % Control
# [9] = test system: Botrytis cinerea; assay: Botrytis cinerea control (detached horsebean leaves); type: in vivo; conditions: 3 to 5 days
# Experimental: Compounds of the invention were tested for Botrytis cinerea control using detached, well-developed primary leaves of a 4-6 week old horsebean plant. […] The leaves were allowed to dry while the filter paper was kept moist by adding water as required. The treated leaves were then inoculated with the spores of Botrytis cinerea fungus grown on potato. The plate was covered after inoculation and kept at 23.5° C. The filter-paper lining of the plate was kept saturated with water throughout the test. The rate of disease incidence was determined in 3 to 5 days, when the disease symptoms were fully evident on non-treated check leaves. […]
# [10] = test system: Crabgrass (Digitaria sanguinalis); assay: Pre-Emergent herbicidal test; type: in vivo; conditions: 33 micrograms/cm^2, 3 weeks, 0-to-100 scale, 100 = complete kill
# Experimental: (§1) Pre-emergent herbicidal tests on representative compounds of the invention were made using the following method:
# (§2) An acetone solution of the test compound was prepared by mixing 750 mg of the compound, 220 mg of a nonionic surfactant and 25 ml of acetone. This solution was added to approximately 125 ml of water containing 156 mg of surfactant.
# (§3) Seeds of the test vegetation were planted in a pot of soil and the test solution was sprayed uniformly onto the soil surface at a dose of 33 micrograms/cm^2. The pot was watered and placed in a greenhouse. […] At the end of this period, the herbicidal effectiveness of the compound was rated based on the physiological observations. A 0-to-100 scale was used, 0 representing no phytotoxicity, 100 representing complete kill.
# [11] = test system: Lambsquarter (Chenopodium album); assay: Pre-Emergent herbicidal test; type: in vivo; conditions: 33 micrograms/cm^2, 3 weeks, 0-to-100 scale, 100 = complete kill
# Experimental: as §1, §2, §3
# [12] = test system: Mustard (Brassica arvensis); assay: Pre-Emergent herbicidal test; type: in vivo; conditions: 33 micrograms/cm^2, 3 weeks, 0-to-100 scale, 100 = complete kill
# Experimental: as §1, §2, §3
# [13] = test system: Watergrass (Echinochloa crusgalli); assay: Pre-Emergent herbicidal test; type: in vivo; conditions: 33 micrograms/cm^2, 3 weeks, 0-to-100 scale, 100 = complete kill
# Experimental: as §1, §2, §3
# [14] = test system: Wild Oats (Avena fatua); assay: Pre-Emergent herbicidal test; type: in vivo; conditions: 33 micrograms/cm^2, 3 weeks, 0-to-100 scale, 100 = complete kill
# Experimental: as §1, §2, §3
# [15] = test system: Wild Oats (Avena fatua); assay: Post-emergent herbicidal test; type: in vivo; conditions: 0-to-100 scale
# [16] = test system: Watergrass (Echinochloa crusgalli); assay: Post-emergent herbicidal test; type: in vivo; conditions: 0-to-100 scale
# [17] = test system: Crabgrass (Digitaria sanguinalis); assay: Post-emergent herbicidal test; type: in vivo; conditions: 0-to-100 scale
# [18] = test system: Mustard (Brassica arvensis); assay: Post-emergent herbicidal test; type: in vivo; conditions: 0-to-100 scale
# [19] = test system: Lambsquarter (Chenopodium album); assay: Post-emergent herbicidal test; type: in vivo; conditions: 0-to-100 scale
SMILES,Celery Late Blight % Control [1],pest or weed control at 250 ppm [2],"Pythium ultimum, micrograms/cm^2 for 99% control of the fungus [3]","Rhizoctonia solani, micrograms/cm^2 for 99% control of the fungus [4]","Aspergillus niger, micrograms/cm^2 for 99% control of the fungus [5]","Fusarium moniliforme, micrograms/cm^2 for 99% control of the fungus [6]",pest or weed control at 250 ppm [7],pest or weed control at 250 ppm [8],"Botrytis Cinerea, micrograms/cm^2 for 99% control of the fungus [9]","Herbicidal Effectiveness - Pre, C [10]","Herbicidal Effectiveness - Pre, L [11]","Herbicidal Effectiveness - Pre, M [12]","Herbicidal Effectiveness - Pre, W [13]","Herbicidal Effectiveness - Pre, O [14]","Herbicidal Effectiveness - Post, O [15]","Herbicidal Effectiveness - Post, W [16]","Herbicidal Effectiveness - Post, C [17]","Herbicidal Effectiveness - Post, M [18]","Herbicidal Effectiveness - Post, L [19]"
FC(F)(F)c1cccc(C2=NC3=S(O2)SN=C3Cl)c1 (centres unmarked) [Compound 4],23%,80%,> 1.7 micrograms/cm^2,0.65 micrograms/cm^2,> 1.7 micrograms/cm^2,> 1.7 micrograms/cm^2,–,–,–,–,–,–,–,–,–,–,–,–,–
"ClC1=NSS2=C1N=C(CI)O2 (centres unmarked) [Compound 9, 2-iodomethyl-3-oxa-3aλ^4,4-dithia-6-chloro-1,5-diazapentalene]",71%,–,0.12 micrograms/cm^2,0.6 micrograms/cm^2,0.52 micrograms/cm^2,0.82 micrograms/cm^2,62%,81%,0.37 micrograms/cm^2,–,–,–,–,–,–,–,–,–,–
Cc1cc(Cl)ccc1OCC1=NC2=S(O1)SN=C2Cl (centres unmarked) [Compound 19],92%,57%,–,–,–,–,–,–,–,85,100,100,75,35,10,40,0,100,95
ClC1=NSS2=C1N=C(COc1ccc(Cl)cc1Cl)O2 (centres unmarked) [Compound 29],–,37%,–,–,–,–,–,69%,–,97,100,100,95,0,20,20,20,100,97
